Data as given in patent US8993574B2, “Pyrrole antifungal agents” (F2G Ltd, priority 2008, dated 2015).
Converted amounts (≈) assume the structure as drawn.

What was measured:
Format in all cases: cell-based
[1] = test system: Aspergillus fumigatus AF293; assay: MIC, YAG medium; settings: 24 h at 35° C, MIC banded into grades; for MIC: Aspergillus fumigatus, read-out: MIC grade, A. fumigatus
Outline: (§1)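 MICs (mg/L) derive from the lowest compound concentration suppressing spore outgrowth by >70% against a drug-free well, by OD 485 nm. Conditions: YAG medium, 1−2×10^4 cfu/mL, 24 h, 35° C, two-fold dilutions from 50 mg/L.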

Aspergillus terreus AT49 [2] = assay: MIC, YAG medium; settings: 24 h at 35° C, MIC banded into grades; for MIC: Aspergillus terreus, read-out: MIC grade, A. terreus 49
Outline: as §1

Aspergillus niger [3] = assay: MIC, YAG medium; settings: 24 h at 35° C, MIC banded into grades; for MIC: Aspergillus niger, read-out: MIC grade, A. niger
Outline: as §1

Aspergillus flavus [4] = assay: MIC, YAG medium; settings: 24 h at 35° C, MIC banded into grades; for MIC: Aspergillus flavus, 24 h, read-out: MIC grade, A. flavus
Outline: as §1

[5] = test system: Aspergillus fumigatus AF210; assay: MIC, YAG medium; settings: 24 h at 35° C, MIC banded into grades; for MIC: Aspergillus fumigatus, read-out: MIC grade, A. fumigatus 210
Outline: as §1

Aspergillus terreus AT4 [6] = assay: MIC, YAG medium; settings: 24 h at 35° C, MIC banded into grades; for MIC: Aspergillus terreus, read-out: MIC grade, A. terreus
Outline: as §1

[7] = test system: Aspergillus fumigatus AF293; assay: MIC, RPMI medium; settings: for MIC: Aspergillus fumigatus, AF293, MIC banded into grades, read-out: MIC grade, A. fumigatus
Outline: (§2)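 RPMI (2% glucose, 0.135 M MOPS, pH 7.0) microdilution; drug 50-0.05 mg/L doubling series; inoculum 1−2×10^4 cfu/mL; 24-48 h, 35° C; OD485; MIC = lowest conc. with >80% inhibition vs drug-free control.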

Aspergillus terreus AT49 [8] = assay: MIC, RPMI medium; settings: for MIC: Aspergillus terreus, AT49, MIC banded into grades, read-out: MIC grade, A. terreus 49
Outline: as §2

Candida albicans = assay: MIC, RPMI medium; settings: 24-48 h at 35° C., >80% growth inhibition, banded into grades; for MIC: Candida albicans
Outline: as §2

Aspergillus niger [9] = assay: MIC, RPMI medium; settings: MIC banded into grades; for MIC: Aspergillus niger, read-out: MIC grade, A. niger
Outline: as §2

Candida tropicalis = assay: MIC, RPMI medium; settings: 24-48 h at 35° C., >80% growth inhibition, banded into grades; for MIC: Candida tropicalis
Outline: as §2

Aspergillus flavus [10] = assay: MIC, RPMI medium; settings: MIC banded into grades; for MIC: Aspergillus flavus, read-out: MIC grade, A. flavus
Outline: as §2

[11] = test system: Aspergillus fumigatus AF210; assay: MIC, RPMI medium; settings: for MIC: Aspergillus fumigatus, AF210, MIC banded into grades, read-out: MIC grade, A. fumigatus 210
Outline: as §2

Candida glabrata = assay: MIC, RPMI medium; settings: 24-48 h at 35° C., >80% growth inhibition, banded into grades; for MIC: Nakaseomyces glabratus
Outline: as §2

Candida krusei = assay: MIC, RPMI medium; settings: 24-48 h at 35° C., >80% growth inhibition, banded into grades; for MIC: Pichia kudriavzevii
Outline: as §2

Aspergillus terreus AT4 [12] = assay: MIC, RPMI medium; settings: for MIC: Aspergillus terreus, AT4, MIC banded into grades, read-out: MIC grade, A. terreus
Outline: as §2

Candida parapsilosis = assay: MIC, RPMI medium; settings: 24-48 h at 35° C., >80% growth inhibition, banded into grades; for MIC: Lodderomyces parapsilosis
Outline: as §2

With `COC(=O)Cn1c(C)cc(-c2ccccc2)c1C(=O)C(=O)Nc1ccc(N2CCN(c3cc(C)cc(C)n3)CC2)cc1` [Example 52, (2-{4-[4-(4,6-Dimethyl-pyridin-2-yl)-piperazin-1-yl]-phenylaminooxalyl}-5-methyl-3-phenyl-pyrrol-1-yl)-acetic acid methyl ester] the “MIC grade, A. fumigatus” value [1] was 3 (A grade of 3 represents an MIC of less than 1 mg/L), the “MIC grade, A. terreus 49” value (Aspergillus terreus AT49 [2]) was 3 (A grade of 3 represents an MIC of less than 1 mg/L) and the “MIC grade, A. niger” value (Aspergillus niger [3]) was 3 (A grade of 3 represents an MIC of less than 1 mg/L). The “MIC grade, A. flavus” value (Aspergillus flavus [4]) was 3 (A grade of 3 represents an MIC of less than 1 mg/L), the “MIC grade, A. fumigatus 210” value [5] was 3 (A grade of 3 represents an MIC of less than 1 mg/L) and the “MIC grade, A. terreus” value (Aspergillus terreus AT4 [6]) was 3 (A grade of 3 represents an MIC of less than 1 mg/L). The “MIC grade, A. fumigatus” value ([7]; MIC banded into grades) was 3 (A grade of 3 represents an MIC of less than 1 mg/L), the “MIC grade, A. terreus 49” value (Aspergillus terreus AT49 [8]; MIC banded into grades) was 3 (A grade of 3 represents an MIC of less than 1 mg/L) and the “Candida MIC, C. albicans” value (Candida albicans) was 2 (A grade of 2 represents an MIC of from 1 to 10 mg/L). The “MIC grade, A. niger” value (Aspergillus niger [9]) was 3 (A grade of 3 represents an MIC of less than 1 mg/L), the “Candida MIC, C. tropicalis” value (Candida tropicalis) was 2 (A grade of 2 represents an MIC of from 1 to 10 mg/L) and the “MIC grade, A. flavus” value (Aspergillus flavus [10]) was 2 (A grade of 2 represents an MIC of from 1 to 10 mg/L). For the same compound, the “MIC grade, A. fumigatus 210” value ([11]; MIC banded into grades) was 3 (A grade of 3 represents an MIC of less than 1 mg/L), the “Candida MIC, C. glabrata” value (Candida glabrata) was 3 (A grade of 3 represents an MIC of less than 1 mg/L) and the “Candida MIC, C. krusei” value (Candida krusei) was 3 (A grade of 3 represents an MIC of less than 1 mg/L). The “MIC grade, A. terreus” value (Aspergillus terreus AT4 [12]; MIC banded into grades) was 3 (A grade of 3 represents an MIC of less than 1 mg/L) and the “Candida MIC, C. parapsilosis” value (Candida parapsilosis) was 2 (A grade of 2 represents an MIC of from 1 to 10 mg/L).

With `Cc1cc(C)nc(N2CCN(c3ccc(NC(=O)C(=O)c4c(-c5ccccc5)cc(C)n4CCN(C)C)cc3)CC2)c1` [Example 86, 2-[1-(2-Dimethylamino-ethyl)-5-methyl-3-phenyl-1H-pyrrol-2-yl]-N-{4-[4-(4,6-dimethyl-pyridin-2-yl)-piperazin-1-yl]-phenyl}-2-oxo-acetamide] the MIC [1] was > 10 µg/mL, the MIC (Aspergillus terreus AT49 [2]) was > 10 µg/mL and the MIC (Aspergillus niger [3]) was > 10 µg/mL. For the same compound, the MIC (Aspergillus flavus [4]) was 1 to 10 µg/mL (≈ 1.77 to 17.7 µM), the MIC [5] was > 10 µg/mL and the MIC (Aspergillus terreus AT4 [6]) was > 10 µg/mL. The MIC [7] was > 10 µg/mL, the MIC (Aspergillus terreus AT49 [8]) was > 10 µg/mL and the MIC (Candida albicans) was < 1 µg/mL. The MIC (Aspergillus niger [9]) was > 10 µg/mL, the MIC (Candida tropicalis) was < 1 µg/mL and the MIC (Aspergillus flavus [10]) was > 10 µg/mL. The MIC [11] was > 10 µg/mL, the MIC (Candida glabrata) was < 1 µg/mL and the MIC (Candida krusei) was < 1 µg/mL. For the same compound, the MIC (Aspergillus terreus AT4 [12]) was > 10 µg/mL and the MIC (Candida parapsilosis) was < 1 µg/mL.

`COCCn1ccc(-c2ccccc2)c1C(=O)C(=O)Nc1ccccc1` [Example 81, 2-[1-(2-Methoxy-ethyl)-3-phenyl-1H-pyrrol-2-yl]-2-oxo-N-phenyl-acetamide] was tested, and the MIC [1] was > 10 µg/mL, the MIC (Aspergillus terreus AT49 [2]) was > 10 µg/mL and the MIC (Aspergillus niger [3]) was > 10 µg/mL. For the same compound, the MIC (Aspergillus flavus [4]) was > 10 µg/mL, the MIC [5] was > 10 µg/mL and the MIC (Aspergillus terreus AT4 [6]) was > 10 µg/mL. The MIC [7] was > 10 µg/mL, the MIC (Aspergillus terreus AT49 [8]) was > 10 µg/mL and the MIC (Candida albicans) was < 1 µg/mL. For the same compound, the MIC (Aspergillus niger [9]) was > 10 µg/mL, the MIC (Candida tropicalis) was < 1 µg/mL and the MIC (Aspergillus flavus [10]) was > 10 µg/mL. The MIC [11] was > 10 µg/mL, the MIC (Candida glabrata) was < 1 µg/mL and the MIC (Candida krusei) was < 1 µg/mL. The MIC (Aspergillus terreus AT4 [12]) was > 10 µg/mL and the MIC (Candida parapsilosis) was < 1 µg/mL.

With `COCCn1c(C)cc(-c2ccccc2)c1C(=O)C(=O)Nc1ccc(N2CCN(c3cc(C)cc(C)n3)CC2)cc1` [Example 9, N-{4-[4-(4,6-Dimethyl-pyridin-2-yl)-piperazin-1-yl]-phenyl}-2-[1-(2-methoxy-ethyl)-5-methyl-3-phenyl-1H-pyrrol-2-yl]-2-oxo-acetamide] the MIC [1] was < 1 µg/mL, the MIC (Aspergillus terreus AT49 [2]) was < 1 µg/mL and the MIC (Aspergillus niger [3]) was < 1 µg/mL. The MIC (Aspergillus flavus [4]) was < 1 µg/mL, the MIC [5] was < 1 µg/mL and the MIC (Aspergillus terreus AT4 [6]) was < 1 µg/mL. The MIC [7] was < 1 µg/mL, the MIC (Aspergillus terreus AT49 [8]) was 1 to 10 µg/mL (≈ 1.81 to 18.1 µM) and the MIC (Candida albicans) was 1 to 10 µg/mL (≈ 1.81 to 18.1 µM). The MIC (Aspergillus niger [9]) was < 1 µg/mL, the MIC (Candida tropicalis) was 1 to 10 µg/mL (≈ 1.81 to 18.1 µM) and the MIC (Aspergillus flavus [10]) was > 10 µg/mL. The MIC [11] was < 1 µg/mL, the MIC (Candida glabrata) was < 1 µg/mL and the MIC (Candida krusei) was < 1 µg/mL. For the same compound, the MIC (Aspergillus terreus AT4 [12]) was 1 to 10 µg/mL (≈ 1.81 to 18.1 µM) and the MIC (Candida parapsilosis) was < 1 µg/mL.
